Source: patent US7109364B2, “Group of anti-cancer compounds with specific structure and their production method” (priority 2000, dated 2006)
≈ marks a conversion by molar mass, not a printed value. Like-named read-outs stand apart in the source and are kept apart here. Each block holds one molecule with its values, some of them ahead of it.

Tests used:
[1] = tested on: B16 mouse melanoma cell line; assay: In vitro anti-cancer efficacy, B16, SRB method, 48 hours; format: cell-based; details: for IC50 / IC90: Mus musculus; for IC50: read-out: B16 IC50; for IC90: read-out: B16 IC90
Description: (§1) The above compounds were dissolved in DMSO at stock concentration of 10 mg/ml and stored at 4° C. Before each experiment they were diluted to desired concentration with serum-free RPMI 1640 medium
2. B16 mouse melanoma cell line: B16 cells were maintained under the same condition as above. 2×10^4 cells/well were plated on 48-well plate and left for 12 hours for attachment. Cells were then treated with the test compounds and solvent control for 48 hours. Numbers of live cells were determined by SRB method. Briefly, cells were fixed with 50 μl/well 15% TCA for 1 hour, and then washed three times with double-distilled water. After drying 50 μl/well 1% SRB dye was added and reacted for 10 minutes. Plate was washed with 1% acetic acid. 0.2 ml Tris buffer (pH 9.6) was added and OD510 was recorded.
(§2) Reagents and Methods: same as in Experiment 1.

[2] = tested on: K562 human leukemia cell line; assay: In vitro anti-cancer efficacy, K562, trypan blue dye exclusion, 48 hours; format: cell-based; details: for IC50 / IC90: Homo sapiens; for IC50: read-out: K562 IC50; for IC90: read-out: K562 IC90
Description: as §1
1. K562 human leukemia cell line: K562 cells were maintained in RPMI 1640 medium with 5% fetal bovine serum at 37° C. under 5% CO2 atmosphere. 4×10^4 cells/well were plated on 96-well plate. After treatment with the test compounds and solvent control (DMSO) for 48 hours, numbers of live cells were counted by trypan blue dye exclusion.
as §2

[3] = Table 2, unit inferred, methods same as in Experiment 1
[4] = K562, Table 2, unit inferred, methods same as in Experiment 1

IC50 ([1]; Table 1, 48 hours): 5.81 µg/mL (≈ 18.1 µM) | IC90 ([1]; Table 1, 48 hours): 12.6 µg/mL (≈ 39.2 µM) | IC50 ([2]; K562, Table 1, 48 hours): 6.73 µg/mL (≈ 20.9 µM) | IC90 ([2]; K562, Table 1, 48 hours): 13.5 µg/mL (≈ 42 µM)
Molecule: CC(C)CCCCCCCCCCCNc1ccc(O)c(O)c1 [Compound 26, N-(12-Methyl-tridecyl)-4-amino-1,2-benzenediol]

IC50 ([1]; Table 1, 48 hours): 16.5 µg/mL (≈ 43.7 µM) | IC90 ([1]; Table 1, 48 hours): 22.9 µg/mL (≈ 60.7 µM) | IC50 ([2]; K562, Table 1, 48 hours): 18.7 µg/mL (≈ 49.5 µM) | IC90 ([2]; K562, Table 1, 48 hours): 24.7 µg/mL (≈ 65.4 µM)
Molecule: CC(C)CCCCCCCCCCCC(=O)Nc1ccc(C(=O)O)c(O)c1 [Compound 12, N-(3-Hydroxy-4-carboxylphenyl)-13-methyl-tetradecanamide]

Molecule: CC(C)CCCCCCCCCCCCc1ccc(O)cc1O [Compound 21, (13-Methyl tetradecyl)-2,4-dihydroxy phene]
B16 IC50 ([1]; Table 1, 48 hours): 3.22 µg/mL | B16 IC90 ([1]; Table 1, 48 hours): 5.14 µg/mL | K562 IC50 ([2]; Table 1, 48 hours): 3.62 µg/mL | K562 IC90 ([2]; Table 1, 48 hours): 5.25 µg/mL

IC50 [1, 3]: 40.5 µg/mL (≈ 220 µM) | IC90 [1, 3]: 91 µg/mL (≈ 494 µM) | IC50 ([2]; K562, Table 1, 48 hours): 51.2 µg/mL (≈ 278 µM) | IC50 [2, 4]: 26.7 µg/mL (≈ 145 µM) | IC90 [2, 4]: 51.2 µg/mL (≈ 278 µM)
Molecule: CC(C)CCCCCC=CC(=O)O [Compound 33, 9-Methyl-2-decenoic acid]

IC50 [1, 3]: 21.3 µg/mL (≈ 79.3 µM) | IC90 [1, 3]: 35.2 µg/mL (≈ 131 µM) | IC50 [2, 4]: 23.8 µg/mL (≈ 88.7 µM) | IC90 [2, 4]: 30.5 µg/mL (≈ 114 µM)
Molecule: CC(C)CCCCCCCC=CCCCCC(=O)O [15-methyl-6-hexadecenoic acid]

IC50 ([1]; Table 1, 48 hours): 24.5 µg/mL (≈ 60.7 µM) | IC90 ([1]; Table 1, 48 hours): 34.6 µg/mL (≈ 85.7 µM) | IC50 ([2]; K562, Table 1, 48 hours): 24.3 µg/mL (≈ 60.2 µM) | IC90 ([2]; K562, Table 1, 48 hours): 38.1 µg/mL (≈ 94.4 µM)
Molecule: CC(C)CCCCCCCCCCCC(=O)N[C@@H](C=O)[C@@H](O)[C@H](O)[C@H](O)CO [Compound 11, N-(13-methyl-tetradecanoyl)-2-amino-2-deoxyglucose]

IC50 ([1]; Table 1, 48 hours): 10.4 µg/mL (≈ 29.2 µM) | IC90 ([1]; Table 1, 48 hours): 20.1 µg/mL (≈ 56.5 µM) | IC50 ([2]; K562, Table 1, 48 hours): 11.8 µg/mL (≈ 33.2 µM) | IC90 ([2]; K562, Table 1, 48 hours): 30.6 µg/mL (≈ 86.1 µM)
Molecule: CC(C)CCCCCCCCCCCC(=O)N[C@@H](CC(C)C)C(=O)O [Compound 7, N-(13-methyl-tetradecanoyl)-L-leucine]

IC50 ([1]; Table 1, 48 hours): 26.3 µg/mL (≈ 70.8 µM) | IC90 ([1]; Table 1, 48 hours): 35.1 µg/mL (≈ 94.5 µM) | IC50 ([2]; K562, Table 1, 48 hours): 28.2 µg/mL (≈ 75.9 µM) | IC90 ([2]; K562, Table 1, 48 hours): 37.9 µg/mL (≈ 102 µM)
Molecule: CC(C)CCCCCCCCCCCC(=O)N[C@@H](CCC(=O)O)C(=O)O [Compound 9, N-(13-methyl-tetradecanoyl)-L-glutamic acid]

B16 IC50 ([1]; Table 1, 48 hours): 14.8 µg/mL | B16 IC90 ([1]; Table 1, 48 hours): 19.32 µg/mL | K562 IC50 ([2]; Table 1, 48 hours): 15.3 µg/mL | K562 IC90 ([2]; Table 1, 48 hours): 20.2 µg/mL
Molecule: (2,3,4-Trihydroxy phenyl)-12-methyl tridecanone [Compound 20]

IC50 ([1]; Table 1, 48 hours): 13.5 µg/mL (≈ 36.5 µM) | IC90 ([1]; Table 1, 48 hours): 18.8 µg/mL (≈ 50.9 µM) | IC50 ([2]; K562, Table 1, 48 hours): 15.1 µg/mL (≈ 40.9 µM) | IC90 ([2]; K562, Table 1, 48 hours): 20 µg/mL (≈ 54.1 µM)
Molecule: CC(C)CCCCCCCCCCCNc1ccc(S(=O)(=O)O)cc1 [Compound 25, N-(12-Methyltridecyl)-4-amino benzenesulfonic acid]

Molecule: CC(C)CCCCCCCCCCCC(=O)N1CCC[C@H]1C(=O)O [Compound 10, N-(13-methyl-tetradecanoyl)-L-proline]
IC50 ([1]; 48 h): 15.2 µg/mL (≈ 44.8 µM) | IC90 ([1]; 48 h): 17.3 µg/mL (≈ 51 µM) | IC50 ([2]; K562, 48 h): 17.2 µg/mL (≈ 50.7 µM) | IC90 ([2]; K562, 48 h): 25.3 µg/mL (≈ 74.5 µM)

B16 IC50 ([1]; Table 1, 48 hours): 25.4 µg/mL | B16 IC90 ([1]; Table 1, 48 hours): 35.7 µg/mL | K562 IC50 ([2]; Table 1, 48 hours): 27.1 µg/mL | K562 IC90 ([2]; Table 1, 48 hours): 37.8 µg/mL
Molecule: CC(C)CCCCCCCCCCCC(=O)Nc1ccc(S(=O)(=O)O)cc1 [Compound 2, N-(4-Sulfo-phenyl)-13-methyl tetradecamide]

IC50 [1, 3]: 20.7 µg/mL (≈ 76.5 µM) | IC90 [1, 3]: 38.2 µg/mL (≈ 141 µM) | IC50 [2, 4]: 25.9 µg/mL (≈ 95.8 µM) | IC90 [2, 4]: 35.6 µg/mL (≈ 132 µM)
Molecule: CC(C)CCCCCCCCCCCCCC(=O)O [15-methyl-hexadecanoic acid, reference compound]

IC50 ([1]; Table 1, 48 hours): 11.1 µg/mL (≈ 31.2 µM) | IC90 ([1]; Table 1, 48 hours): 18.9 µg/mL (≈ 53.2 µM) | IC50 ([2]; K562, Table 1, 48 hours): 19.3 µg/mL (≈ 54.3 µM) | IC90 ([2]; K562, Table 1, 48 hours): 28.6 µg/mL (≈ 80.4 µM)
Molecule: CC[C@H](C)[C@H](NC(=O)CCCCCCCCCCCC(C)C)C(=O)O [Compound 8, N-(13-methyl-tetradecanoyl)-L-isoleucine]

IC50 ([1]; Table 1, 48 hours): 11.7 µg/mL (≈ 34.3 µM) | IC90 ([1]; Table 1, 48 hours): 19.2 µg/mL (≈ 56.2 µM) | IC50 ([2]; K562, Table 1, 48 hours): 18.1 µg/mL (≈ 53 µM) | IC90 ([2]; K562, Table 1, 48 hours): 22.5 µg/mL (≈ 65.9 µM)
Molecule: CC(C)CCCCCCCCCCCC(=O)N[C@H](C(=O)O)C(C)C [Compound 6, N-(13-methyl-tetradecanoyl)-L-valine]

IC50 [1, 3]: 97 µg/mL (≈ 521 µM) | IC90 [1, 3]: 280 µg/mL (≈ 1500 µM) | IC50 [2, 4]: 55.5 µg/mL (≈ 298 µM) | IC90 [2, 4]: 87 µg/mL (≈ 467 µM)
Molecule: CC(C)CCCCCCCC(=O)O [9-methyl-decanoic acid, reference compound]

B16 IC50 ([1]; Table 1, 48 hours): 4.93 µg/mL | B16 IC90 ([1]; Table 1, 48 hours): 6.11 µg/mL | K562 IC50 ([2]; Table 1, 48 hours): 5.13 µg/mL | K562 IC90 ([2]; Table 1, 48 hours): 6.80 µg/mL
Molecule: (2,4,6-Trihydroxyphenyl)-12-methyl tridecanone [Compound 19]
